Data published in patent US11986475B1, “Compositions and methods for treating cancer” (A2A Pharmaceuticals, Inc., priority 2022, dated 2024).

What was measured:
[1] = test system: MDA-MB-231; experiment: Cell viability assay (SRB or CTG) in MDA-MB-231; format: cell-based; conditions: Homo sapiens, MDA-MB-231, 72 h, 3 days after drug treatment
Experimental: (§1) Human breast carcinoma cell line, MDA-MB-231 and human endometrial cancer cell line, HEC-59 were purchased from ATCC (American Type Culture Collection; USA). MDA-MB-231 cells were cultured in Dulbecco's modified Eagle's medium (Lonza, NJ, USA), and HEC-59 were grown in Iscove's Modified Dulbecco's Medium (Lonza, NJ, USA), supplemented with 10% fetal bovine serum (FBS, Lonza), 1% non-essential amino acid (NEAA), 2 mM L-glutamine (Sigma Aldrich, MO, USA) and 50 U/ml penicillin/streptomycin (P/S). All cell lines were tested regularly using MycoAlert Mycoplasma Detection Kit (Lonza). The cumulative length of the cells between thawing and use in the experiments was less than 20 passages.
(§2) 4000 cells/well of MDA-MB-231 and HEC-59 cells were seeded in a 96 well plate in 80 μL media/well. Approximately 18 hours later, 3× drug solutions were prepared by serial dilution (100, 10, 5, 1, 0.5, 0.3, 0.1, 0.05, 0.01 μM), and the drug containing media was added to each well with a volume of 40 μL. For MDA-MB-231, 3 days after drug treatment, the SRB or CTG assay was performed. HEC59, the drug containing media was renewed at day 4. After 7 days total, the SRB or CTG assay was performed.

[2] = test system: HEC-59; experiment: Cell viability assay (SRB or CTG) in HEC-59; format: cell-based; conditions: Homo sapiens, 7 days total, media renewed at day 4, SRB or CTG
Experimental: as §1, §2

IC50 [1]	Structure (SMILES)	IC50 [2]
533 nM	C[C@@H]1CN(c2ncc(F)c(Nc3cc(-c4ccc(OC(F)F)cc4)cnn3)n2)C[C@@H](C)O1 [Compound 90, 5-(4-(difluoromethoxy)phenyl)-N-(2-((2R,6R)-2,6-dimethylmorpholino)-5-fluoropyrimidin-4-yl)pyridazin-3-amine]	1100 nM
328 nM	C[C@H]1CN(c2ncc(F)c(Nc3cc(-c4ccc(OC(F)F)cc4)cnn3)n2)C[C@H](C)O1 [Compound 91, 5-(4-(difluoromethoxy)phenyl)-N-(2-((2S,6S)-2,6-dimethylmorpholino)-5-fluoropyrimidin-4-yl)pyridazin-3-amine]	200 nM
> 10000 nM	Cc1nnc(Nc2nc(N3C[C@@H](C)O[C@@H](C)C3)ncc2F)cc1-c1ccc(OC(F)F)cc1 [Compound 508, 5-(4-(difluoromethoxy)phenyl)-N-(2-((2R,6S)-2,6-dimethylmorpholino)-5-fluoropyrimidin-4-yl)-6-methylpyridazin-3-amine]	7260 nM
> 10000 nM	COc1nnc(Nc2nc(N3C[C@@H](C)O[C@@H](C)C3)ncc2F)cc1-c1ccc(OC(F)F)cc1 [Compound 526, 5-(4-(difluoromethoxy)phenyl)-N-(2-((2R,6S)-2,6-dimethylmorpholino)-5-fluoropyrimidin-4-yl)-6-methoxypyridazin-3-amine]	1180 nM
> 10000 nM	CNc1nnc(Nc2nc(N3C[C@@H](C)O[C@@H](C)C3)ncc2F)cc1-c1ccc(OC(F)F)cc1 [Compound 544, 4-(4-(difluoromethoxy)phenyl)-N6-(2-((2R,6S)-2,6-dimethylmorpholino)-5-fluoropyrimidin-4-yl)-N3-methylpyridazine-3,6-diamine]	2720 nM
> 10000 nM	C[C@@H]1CN(c2ncc(F)c(Nc3cc(-c4ccc(OC(F)F)cc4)c(C(=O)O)nn3)n2)C[C@H](C)O1 [Compound 562, 4-(4-(difluoromethoxy)phenyl)-6-((2-((2R,6S)-2,6-dimethylmorpholino)-5-fluoropyrimidin-4-yl)amino)pyridazine-3-carboxylic acid]	> 10000 nM
> 10000 nM	CC(=O)c1nnc(Nc2nc(N3C[C@@H](C)O[C@@H](C)C3)ncc2F)cc1-c1ccc(OC(F)F)cc1 [Compound 580, 1-(4-(4-(difluoromethoxy)phenyl)-6-((2-((2R,6S)-2,6-dimethylmorpholino)-5-fluoropyrimidin-4-yl)amino)pyridazin-3-yl)ethan-1-one]	> 10000 nM
805 nM	C[C@@H]1CN(c2ncc(F)c(Nc3cc(-c4ccc(OC(F)F)cc4)c(N)nn3)n2)C[C@H](C)O1 [Compound 598, 5-(4-(difluoromethoxy)phenyl)-N3-(2-((2R,6S)-2,6-dimethylmorpholino)-5-fluoropyrimidin-4-yl)pyridazine-3,6-diamine]	9850 nM
> 10000 nM	COC(=O)c1nnc(Nc2nc(N3C[C@@H](C)O[C@@H](C)C3)ncc2F)cc1-c1ccc(OC(F)F)cc1 [Compound 616, methyl 4-(4-(difluoromethoxy)phenyl)-6-((2-((2R,6S)-2,6-dimethylmorpholino)-5-fluoropyrimidin-4-yl)amino)pyridazine-3-carboxylate]	> 10000 nM
> 10000 nM	CNC(=O)c1nnc(Nc2nc(N3C[C@@H](C)O[C@@H](C)C3)ncc2F)cc1-c1ccc(OC(F)F)cc1 [Compound 634, 4-(4-(difluoromethoxy)phenyl)-6-((2-((2R,6S)-2,6-dimethylmorpholino)-5-fluoropyrimidin-4-yl)amino)-N-methylpyridazine-3-carboxamide]	> 10000 nM

More lines, now with the values behind:

Structure (SMILES)	IC50 [1]	IC50 [2]
Fc1cnc(N2CCOC3CC32)nc1Nc1cc(-c2ccc(OC(F)F)cc2)cnn1 (stereo not drawn) [Compound 103, N-(2-(2-oxa-5-azabicyclo[4.1.0]heptan-5-yl)-5-fluoropyrimidin-4-yl)-5-(4-(difluoromethoxy)phenyl)pyridazin-3-amine]	> 10000 nM	> 10000 nM
Fc1cnc(N2CCCC2)nc1Nc1cc(-c2ccc(OC(F)F)cc2)cnn1 [Compound 104, 5-(4-(difluoromethoxy)phenyl)-N-(5-fluoro-2-(pyrrolidin-1-yl)pyrimidin-4-yl)pyridazin-3-amine]	345 nM	86 nM
C[C@@H]1CN(c2nc(F)cc(Nc3cc(-c4ccc(OC(F)F)cc4)cnn3)n2)C[C@H](C)O1 [Compound 131, 5-(4-(difluoromethoxy)phenyl)-N-(2-((2R,6S)-2,6-dimethylmorpholino)-6-fluoropyrimidin-4-yl)pyridazin-3-amine]	181 nM	142 nM
C[C@@H]1CN(c2nccc(Nc3cc(-c4ccc(OC(F)F)cc4)cnc3F)n2)C[C@H](C)O1 [Compound 182, N-(5-(4-(difluoromethoxy)phenyl)-2-fluoropyridin-3-yl)-2-((2R,6S)-2,6-dimethylmorpholino)pyrimidin-4-amine]	1090 nM	290 nM
C[C@@H]1CN(c2ccc(F)c(Nc3cc(-c4ccc(OC(F)F)cc4)cnn3)n2)C[C@H](C)O1 [Compound 223, 5-(4-(difluoromethoxy)phenyl)-N-(6-((2R,6S)-2,6-dimethylmorpholino)-3-fluoropyridin-2-yl)pyridazin-3-amine]	84 nM	61 nM
C[C@@H]1CN(c2nccc(Nc3cc(-c4ccc(OC(F)F)cc4)c[nH]c3=O)n2)C[C@H](C)O1 [Compound 264, 5-(4-(difluoromethoxy)phenyl)-3-((2-((2R,6S)-2,6-dimethylmorpholino)pyrimidin-4-yl)amino)pyridin-2(1H)-one]	202 nM	121 nM
COc1ncc(-c2ccc(OC(F)F)cc2)cc1Nc1ccnc(N2C[C@@H](C)O[C@@H](C)C2)n1 [Compound 305, N-(5-(4-(difluoromethoxy)phenyl)-2-methoxypyridin-3-yl)-2-((2R,6S)-2,6-dimethylmorpholino)pyrimidin-4-amine]	> 10000 nM	> 10000 nM
C[C@@H]1CN(c2ncc(F)c(Nc3cc(-c4ccc(OC(F)F)cc4)c[nH]c3=O)n2)C[C@H](C)O1 [Compound 346, 5-(4-(difluoromethoxy)phenyl)-3-((2-((2R,6S)-2,6-dimethylmorpholino)-5-fluoropyrimidin-4-yl)amino)pyridin-2(1H)-one]	1050 nM	784 nM
COc1ncc(-c2ccc(OC(F)F)cc2)cc1Nc1nc(N2C[C@@H](C)O[C@@H](C)C2)ncc1F [Compound 387, N-(5-(4-(difluoromethoxy)phenyl)-2-methoxypyridin-3-yl)-2-((2R,6S)-2,6-dimethylmorpholino)-5-fluoropyrimidin-4-amine]	> 10000 nM	> 10000 nM
C[C@@H]1CN(c2cc(Nc3cc(-c4ccc(OC(F)F)cc4)cnn3)ccn2)C[C@H](C)O1 [Compound 428, 5-(4-(difluoromethoxy)phenyl)-N-(2-((2R,6S)-2,6-dimethylmorpholino)pyridin-4-yl)pyridazin-3-amine]	794 nM	> 10000 nM
C[C@@H]1CN(c2cc(Nc3cc(-c4ccc(OC(F)F)cc4)cnn3)c(F)cn2)C[C@H](C)O1 [Compound 469, 5-(4-(difluoromethoxy)phenyl)-N-(2-((2R,6S)-2,6-dimethylmorpholino)-5-fluoropyridin-4-yl)pyridazin-3-amine]	645 nM	1300 nM
